Data on six molecules can be found in BindingDB's records for doi:10.1021/jm040190e (National Institute On Drug Abuse-Intramural Research Program, 2005).

The nature of this experiment: Mitogenic stimulation or antagonism of 30 nM quinpirole-stimulated mitogenesis in CHO cells expressing human dopamine D3 receptor.
Usually IC50 stands for the concentration that inhibits the measured activity by half. Read a low IC50 as greater potency in that assay. As to `O=C(NC/C=C/CN1CCN(c2cccc(Cl)c2Cl)CC1)c1ccc2c(c1)Cc1ccccc1-2` [N-(4-(4-(2,3-dichlorophenyl)piperazin-1-yl)but-2-enyl)-9H-fluorene-2-carboxamide], the IC50 amounted to 173 nM. The result for `O=C(NC/C=C/CN1CCN(c2cccc(Cl)c2Cl)CC1)c1ccc(O)cc1` [N-{4-[4-(2,3-Dichloro-phenyl)-piperazin-1-yl]-but-2-enyl}-4-hydroxy-benzamide] reads 1 nM; that for `O=C(NC/C=C/CN1CCN(c2cccc(Cl)c2Cl)CC1)c1ccc(I)cc1` [N-{4-[4-(2,3-Dichloro-phenyl)-piperazin-1-yl]-but-2-enyl}-4-iodo-benzamide], 24.1 nM. Take `COc1ccc(C(=O)NC/C=C/CN2CCN(c3cccc(Cl)c3Cl)CC2)cc1` [N-{4-[4-(2,3-Dichloro-phenyl)-piperazin-1-yl]-but-2-enyl}-4-methoxy-benzamide]: half-maximal inhibition (IC50) was put at 4.79 nM.

As to `O=C(NCCCCN1CCN(c2cccc(Cl)c2Cl)CC1)c1ccc(-c2ccccn2)cc1` [N-{4-[4-(2,3-Dichloro-phenyl)-piperazin-1-yl]-butyl}-4-pyridin-2-yl-benzamide], the IC50 is 6.31 nM. For `O=C(NC/C=C/CN1CCN(c2cccc(Cl)c2Cl)CC1)c1ccc([N+](=O)[O-])cc1` [N-{(E)-4-[4-(2,3-Dichloro-phenyl)-piperazin-1-yl]-but-2-enyl}-4-nitro-benzamide], inhibition was half-maximal at 2.2 nM (IC50).
